One experiment addresses EGFR^L858R/T790M/C^797S (Homo sapiens, UniProt P00533, C797S/L858R/T790M). Briefly: in vitro kinase assay (HTRF KinEASE-TK kit), LTC. To be noted: kinase inhibition. The format is biochemical. An excerpt:
(§1) Assays using an in vitro kinase assay kit (HTRF KinEASE-TK kit) can be used to study the inhibitory activity of compounds described herein with respect to EGFR mutants such as EGFR^L858R, EGFR^L58R/T790M, and EGFR^L858R/T790M/C^797S.

In another experiment the target is EGFR^L58R/T790M (Homo sapiens, UniProt P00533, L858R/T790M). Briefly: in vitro kinase assay (HTRF KinEASE-TK kit), LT. In kind it is biochemical. The following applies: kinase inhibition.
Text: as §1

The target of the next experiment is EGFR^L858R (Homo sapiens, UniProt P00533, L858R). Description: in vitro kinase assay (HTRF KinEASE-TK kit), L. In kind it is biochemical. The following applies: kinase inhibition.
Text: as §1

Experiment [1] deals with Ba/F3 EGFR-Del19/T790M/C797S (Homo sapiens, UniProt P00533, T790M/C797S, cells depend on it, form not given). Description: Ba/F3 viability assay (CellTiter-Glo), DTC. The format is cell-based. The following applies: anti-proliferation, read-out: BaF3 DTC IC50. An excerpt: (§2) Inhibition of cell proliferation can be studied using Ba/F3 viability assays, including the Promega CellTiter-Glo cell viability assay. This assay can be used to study the effect of compounds described herein in the following assays: (1) Ba/F3 Parental; (2) Ba/F3 EGFR-Del19/T790M; (3); Ba/F3 EGFR-Del19/C797S; and (4) Ba/F3 EGFR-Del19/T790M/C797S.

The target of the next experiment is Ba/F3 EGFR-Del19/T790M (Homo sapiens, UniProt P00533, T790M, cells depend on it, form not given). Description: Ba/F3 viability assay (CellTiter-Glo), DT. The format is cell-based. To be noted: anti-proliferation, read-out: BaF3 DT IC50.
Text: as §2

For the next experiment, the target named is Ba/F3 EGFR-Del19/C797S (Homo sapiens, UniProt P00533, C797S, cells depend on it, form not given). Description: Ba/F3 viability assay (CellTiter-Glo), DC. The format is cell-based. The following applies: anti-proliferation, read-out: BaF3 DC IC50.
Text: as §2

In the next experiment the test system is Ba/F3 Parental. Briefly: Ba/F3 viability assay (CellTiter-Glo), parental. To be noted: Mus musculus, BaF3, anti-proliferation. In kind it is cell-based.
Text: as §2

Ba/F3 EGFR-Del19/T790M, sequence (P00533 with tags, fused parts or gaps DEL746-750/T790M, form open): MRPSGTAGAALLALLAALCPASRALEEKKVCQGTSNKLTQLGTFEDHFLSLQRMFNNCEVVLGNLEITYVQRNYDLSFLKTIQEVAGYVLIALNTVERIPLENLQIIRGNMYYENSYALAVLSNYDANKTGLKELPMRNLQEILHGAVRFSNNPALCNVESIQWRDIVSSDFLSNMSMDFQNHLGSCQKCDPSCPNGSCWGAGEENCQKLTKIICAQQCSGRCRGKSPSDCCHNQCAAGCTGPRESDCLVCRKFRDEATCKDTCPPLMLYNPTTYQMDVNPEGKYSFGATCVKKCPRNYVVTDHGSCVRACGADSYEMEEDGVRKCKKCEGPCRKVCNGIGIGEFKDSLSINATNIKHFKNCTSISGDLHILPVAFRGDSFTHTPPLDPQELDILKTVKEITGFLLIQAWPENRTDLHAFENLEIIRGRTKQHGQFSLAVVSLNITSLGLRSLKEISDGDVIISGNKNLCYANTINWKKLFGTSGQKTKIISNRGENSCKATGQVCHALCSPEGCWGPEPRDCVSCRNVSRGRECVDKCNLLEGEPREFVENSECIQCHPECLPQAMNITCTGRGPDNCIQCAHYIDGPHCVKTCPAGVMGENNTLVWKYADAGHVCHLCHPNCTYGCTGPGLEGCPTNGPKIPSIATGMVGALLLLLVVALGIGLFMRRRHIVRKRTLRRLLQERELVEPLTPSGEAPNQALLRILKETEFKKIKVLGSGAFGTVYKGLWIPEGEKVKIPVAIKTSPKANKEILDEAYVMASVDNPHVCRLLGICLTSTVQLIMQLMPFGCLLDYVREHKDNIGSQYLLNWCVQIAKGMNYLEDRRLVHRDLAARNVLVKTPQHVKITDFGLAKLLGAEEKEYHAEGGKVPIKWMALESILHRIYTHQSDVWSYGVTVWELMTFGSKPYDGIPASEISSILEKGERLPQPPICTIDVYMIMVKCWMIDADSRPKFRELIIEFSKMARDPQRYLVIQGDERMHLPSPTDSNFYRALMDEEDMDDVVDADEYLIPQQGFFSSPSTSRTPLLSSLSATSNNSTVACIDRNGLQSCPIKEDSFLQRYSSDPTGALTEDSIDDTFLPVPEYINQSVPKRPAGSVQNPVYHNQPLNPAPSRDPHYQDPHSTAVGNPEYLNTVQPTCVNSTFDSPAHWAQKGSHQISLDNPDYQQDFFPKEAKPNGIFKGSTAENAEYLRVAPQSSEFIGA
EGFR^L58R/T790M, sequence (P00533 25-1210 T790M/L858R): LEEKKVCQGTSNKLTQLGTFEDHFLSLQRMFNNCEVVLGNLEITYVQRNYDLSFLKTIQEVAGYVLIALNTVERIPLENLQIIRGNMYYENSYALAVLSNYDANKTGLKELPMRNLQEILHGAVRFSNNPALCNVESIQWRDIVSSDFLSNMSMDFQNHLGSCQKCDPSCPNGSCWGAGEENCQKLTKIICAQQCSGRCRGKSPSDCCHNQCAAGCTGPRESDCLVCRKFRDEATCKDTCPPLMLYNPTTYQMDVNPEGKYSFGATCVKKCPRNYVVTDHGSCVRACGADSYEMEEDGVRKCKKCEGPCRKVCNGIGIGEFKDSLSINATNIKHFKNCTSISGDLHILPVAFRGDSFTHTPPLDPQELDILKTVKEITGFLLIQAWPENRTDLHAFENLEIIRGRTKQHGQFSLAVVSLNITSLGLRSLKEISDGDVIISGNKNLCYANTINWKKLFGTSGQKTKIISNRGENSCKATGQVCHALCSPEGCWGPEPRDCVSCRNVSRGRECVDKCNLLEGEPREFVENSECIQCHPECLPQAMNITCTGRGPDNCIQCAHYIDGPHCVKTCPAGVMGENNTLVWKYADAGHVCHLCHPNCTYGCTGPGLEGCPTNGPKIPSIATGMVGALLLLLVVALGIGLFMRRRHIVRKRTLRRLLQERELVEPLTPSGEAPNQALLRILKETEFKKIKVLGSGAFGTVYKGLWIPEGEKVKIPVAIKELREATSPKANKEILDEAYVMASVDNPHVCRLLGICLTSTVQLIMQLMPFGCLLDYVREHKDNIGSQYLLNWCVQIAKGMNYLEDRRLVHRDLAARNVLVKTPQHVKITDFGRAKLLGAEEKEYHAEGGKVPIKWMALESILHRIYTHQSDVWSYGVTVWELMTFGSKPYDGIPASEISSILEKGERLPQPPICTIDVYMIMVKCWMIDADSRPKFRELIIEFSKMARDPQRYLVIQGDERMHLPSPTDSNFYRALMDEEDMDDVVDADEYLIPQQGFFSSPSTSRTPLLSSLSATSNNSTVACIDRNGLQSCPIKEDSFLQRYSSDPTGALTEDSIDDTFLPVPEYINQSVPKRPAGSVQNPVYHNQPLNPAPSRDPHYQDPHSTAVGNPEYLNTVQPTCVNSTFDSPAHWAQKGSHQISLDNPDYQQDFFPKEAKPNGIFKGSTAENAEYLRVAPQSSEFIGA
Ba/F3 EGFR-Del19/C797S, sequence (P00533 with tags, fused parts or gaps DEL746-750/C797S, form open): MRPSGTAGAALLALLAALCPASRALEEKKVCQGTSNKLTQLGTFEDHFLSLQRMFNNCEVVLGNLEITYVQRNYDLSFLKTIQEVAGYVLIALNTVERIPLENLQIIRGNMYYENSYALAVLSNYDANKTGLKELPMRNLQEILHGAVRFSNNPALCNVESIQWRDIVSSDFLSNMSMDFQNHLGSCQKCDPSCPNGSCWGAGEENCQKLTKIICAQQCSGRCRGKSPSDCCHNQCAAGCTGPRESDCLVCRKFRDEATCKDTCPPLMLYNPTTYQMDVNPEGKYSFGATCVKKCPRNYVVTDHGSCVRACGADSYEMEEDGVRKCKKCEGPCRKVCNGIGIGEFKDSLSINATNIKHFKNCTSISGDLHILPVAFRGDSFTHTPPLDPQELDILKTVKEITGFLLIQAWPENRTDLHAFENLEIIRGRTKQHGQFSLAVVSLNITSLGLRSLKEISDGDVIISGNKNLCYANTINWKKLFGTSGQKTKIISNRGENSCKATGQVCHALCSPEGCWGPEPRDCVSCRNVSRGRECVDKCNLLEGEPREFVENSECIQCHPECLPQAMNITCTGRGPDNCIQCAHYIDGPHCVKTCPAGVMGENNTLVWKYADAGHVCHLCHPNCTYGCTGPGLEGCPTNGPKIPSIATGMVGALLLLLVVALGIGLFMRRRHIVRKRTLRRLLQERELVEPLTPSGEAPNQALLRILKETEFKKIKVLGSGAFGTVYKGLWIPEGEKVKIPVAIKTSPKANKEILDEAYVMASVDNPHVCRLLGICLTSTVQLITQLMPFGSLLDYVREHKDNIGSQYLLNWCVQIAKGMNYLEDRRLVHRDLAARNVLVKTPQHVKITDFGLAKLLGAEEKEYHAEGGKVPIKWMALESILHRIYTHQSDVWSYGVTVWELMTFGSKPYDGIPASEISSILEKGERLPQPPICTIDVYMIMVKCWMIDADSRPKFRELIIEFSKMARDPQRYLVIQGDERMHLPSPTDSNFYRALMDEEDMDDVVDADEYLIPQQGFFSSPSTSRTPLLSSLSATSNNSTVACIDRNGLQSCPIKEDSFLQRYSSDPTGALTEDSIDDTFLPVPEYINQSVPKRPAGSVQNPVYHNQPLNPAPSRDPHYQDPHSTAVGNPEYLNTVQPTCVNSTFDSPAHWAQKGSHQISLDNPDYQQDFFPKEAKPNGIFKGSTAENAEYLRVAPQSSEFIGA
EGFR^L858R/T790M/C^797S, sequence (P00533 25-1210 T790M/C797S/L858R): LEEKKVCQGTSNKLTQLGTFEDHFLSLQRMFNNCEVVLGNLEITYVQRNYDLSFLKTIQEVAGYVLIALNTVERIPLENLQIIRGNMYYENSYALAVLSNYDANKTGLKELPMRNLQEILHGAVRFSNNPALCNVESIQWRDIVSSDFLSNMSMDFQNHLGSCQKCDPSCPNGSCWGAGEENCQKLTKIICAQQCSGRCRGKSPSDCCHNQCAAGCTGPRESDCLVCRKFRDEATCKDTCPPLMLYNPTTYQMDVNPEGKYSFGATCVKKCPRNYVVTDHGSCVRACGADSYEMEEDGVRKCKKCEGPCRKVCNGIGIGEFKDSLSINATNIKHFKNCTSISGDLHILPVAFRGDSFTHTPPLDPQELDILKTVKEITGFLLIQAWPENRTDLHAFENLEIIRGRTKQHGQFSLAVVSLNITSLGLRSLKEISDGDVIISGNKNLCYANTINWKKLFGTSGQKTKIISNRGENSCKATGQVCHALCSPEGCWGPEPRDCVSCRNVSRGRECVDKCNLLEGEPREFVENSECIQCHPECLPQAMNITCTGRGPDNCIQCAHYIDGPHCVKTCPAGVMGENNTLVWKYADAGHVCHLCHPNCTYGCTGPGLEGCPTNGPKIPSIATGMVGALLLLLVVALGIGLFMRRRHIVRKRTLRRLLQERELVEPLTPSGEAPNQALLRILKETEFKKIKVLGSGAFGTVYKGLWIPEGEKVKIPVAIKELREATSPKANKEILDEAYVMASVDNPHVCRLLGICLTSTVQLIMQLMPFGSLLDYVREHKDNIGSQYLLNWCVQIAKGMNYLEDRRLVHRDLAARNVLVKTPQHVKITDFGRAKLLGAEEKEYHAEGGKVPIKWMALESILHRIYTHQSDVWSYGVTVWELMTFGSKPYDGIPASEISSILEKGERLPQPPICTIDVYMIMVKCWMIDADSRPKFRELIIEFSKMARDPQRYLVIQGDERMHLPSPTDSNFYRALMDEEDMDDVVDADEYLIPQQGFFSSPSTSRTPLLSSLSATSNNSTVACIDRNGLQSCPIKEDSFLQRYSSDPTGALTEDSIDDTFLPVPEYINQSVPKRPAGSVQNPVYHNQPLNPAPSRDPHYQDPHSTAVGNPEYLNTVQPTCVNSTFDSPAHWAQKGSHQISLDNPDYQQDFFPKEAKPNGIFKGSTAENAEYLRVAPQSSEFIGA

Consider `CC1CCOc2c(cnn2C)-c2nccc(n2)Nc2cc3c(cn2)c(-c2cc(CN4CCN(C)CC4)cn2C)nn31` (stereo not drawn) [(83)], for which the IC50 against EGFR^L858R/T790M/C^797S was less than 10 nM; on EGFR^L58R/T790M it was less than 10 nM; against EGFR^L858R, 10 to 100 nM; with Ba/F3 Parental, 10 to 100 nM. Also, the GI50 (in experiment [1]; at Ba/F3 EGFR-Del19/T790M; at Ba/F3 EGFR-Del19/C797S) was 10 to 100 nM each time.

On to `C[C@H]1CCOc2c(cnn2C)-c2nccc(n2)Nc2cc3c(cn2)c(-c2cnn(CCN(C)C)c2)nn31` [(102)], for which the IC50 against EGFR^L858R/T790M/C^797S is less than 10 nM; at EGFR^L58R/T790M, less than 10 nM; against EGFR^L858R, less than 10 nM; in the experiment on Ba/F3 Parental it was 100 to 1000 nM. The GI50 (in experiment [1]; on Ba/F3 EGFR-Del19/T790M; at Ba/F3 EGFR-Del19/C797S) was 10 to 100 nM each time.

`C[C@H]1CCOc2c(cnn2C)-c2nccc(n2)Nc2cc3c(cn2)c(-c2cc(CN4CCN(C5CC5)CC4)n(C)c2)nn31` [(147)]: the IC50 is less than 10 nM against EGFR^L858R/T790M/C^797S, less than 10 nM against EGFR^L58R/T790M, less than 10 nM against EGFR^L858R and 100 to 1000 nM in the experiment on Ba/F3 Parental. Also, the GI50 (in experiment [1]; on Ba/F3 EGFR-Del19/T790M; at Ba/F3 EGFR-Del19/C797S) was less than 10 nM throughout.

Turning to `C[C@H]1CCOc2c(cnn2C)-c2nccc(n2)Nc2cc3c(cn2)c(-c2cc(CN4CCOCC4)n(C)c2)nn31` [(139)], the IC50 at EGFR^L858R/T790M/C^797S was less than 10 nM; at EGFR^L58R/T790M, less than 10 nM; against EGFR^L858R it was less than 10 nM; in the experiment on Ba/F3 Parental, 100 to 1000 nM. In addition, the GI50 (in experiment [1]; on Ba/F3 EGFR-Del19/T790M; at Ba/F3 EGFR-Del19/C797S) was less than 10 nM in each case.

Regarding `CC1COc2c(cnn2C)-c2nccc(n2)Nc2cc3c(cn2)c(N2CCC2)nn3C1` (stereo not drawn) [(6)], the IC50 against EGFR^L858R/T790M/C^797S is less than 10 nM; on EGFR^L58R/T790M, less than 10 nM; against EGFR^L858R, 10 to 100 nM; with Ba/F3 Parental, 100 to 1000 nM. Moreover, the GI50 (in experiment [1]; on Ba/F3 EGFR-Del19/T790M; at Ba/F3 EGFR-Del19/C797S) was 10 to 100 nM each time.

As to `CCN(CC)Cc1ccc(-c2nn3c4cc(ncc24)Nc2ccnc(n2)-c2cnn(C)c2OCC[C@@H]3C)n1C` [(137)], the IC50 against EGFR^L858R/T790M/C^797S is less than 10 nM; against EGFR^L58R/T790M, less than 10 nM; against EGFR^L858R it was less than 10 nM; in the experiment on Ba/F3 Parental, 100 to 1000 nM. The GI50 (in experiment [1]; at Ba/F3 EGFR-Del19/T790M; at Ba/F3 EGFR-Del19/C797S) was less than 10 nM in each case.

Turning to `CC(C)n1cc(-c2nn3c4cc(ncc24)Nc2ccnc(n2)-c2cnn(C)c2OCC[C@@H]3C)cc1CN1CCOCC1` [(151)], the 50% inhibitory concentration (IC50) against EGFR^L858R/T790M/C^797S was less than 10 nM; at EGFR^L58R/T790M, less than 10 nM; at EGFR^L858R, less than 10 nM; with Ba/F3 Parental, 100 to 1000 nM. Besides, the values for the GI50 (in experiment [1]; on Ba/F3 EGFR-Del19/T790M; at Ba/F3 EGFR-Del19/C797S) were less than 10 nM, less than 10 nM and 10 to 100 nM, respectively.

Regarding `CN(C)CC1CCCN1c1nn2c3cc(ncc13)Nc1ccnc(n1)-c1cnn(C)c1OCCC2` (stereo not drawn) [(11)], the half-inhibitory concentration (IC50) at EGFR^L858R/T790M/C^797S was less than 10 nM; on EGFR^L58R/T790M, less than 10 nM; against EGFR^L858R, 100 to 1000 nM; in the experiment with Ba/F3 Parental, 100 to 1000 nM. For the same molecule, the GI50 (in experiment [1]; on Ba/F3 EGFR-Del19/T790M; on Ba/F3 EGFR-Del19/C797S) was 100 to 1000 nM each time.

With `C[C@H]1CCOc2c(cnn2C)-c2nccc(n2)Nc2cc3c(cn2)c(-c2cc(CN(C)C)ccn2)nn31` [(183)], the IC50 is less than 10 nM at EGFR^L858R/T790M/C^797S, less than 10 nM against EGFR^L58R/T790M, less than 10 nM against EGFR^L858R and 100 to 1000 nM in the experiment with Ba/F3 Parental. The GI50 in experiment [1] was less than 10 nM; on Ba/F3 EGFR-Del19/T790M, 10 to 100 nM; at Ba/F3 EGFR-Del19/C797S it was 10 to 100 nM.

For the molecule `C[C@H]1CCOc2c(cnn2C)-c2nccc(n2)Nc2cc3c(cn2)c(-c2ccc(CN(C)C)o2)nn31` [(162)], the half-maximal inhibitory concentration (IC50) against EGFR^L858R/T790M/C^797S is less than 10 nM; against EGFR^L58R/T790M, less than 10 nM; at EGFR^L858R it was less than 10 nM; in the experiment on Ba/F3 Parental, 100 to 1000 nM. Moreover, the GI50 (in experiment [1]; at Ba/F3 EGFR-Del19/T790M; on Ba/F3 EGFR-Del19/C797S) was less than 10 nM each time.

In the case of `CCN1CCC(Oc2cc(F)cc(-c3nn4c5cc(ncc35)Nc3ccnc(n3)-c3cnn(C)c3OCC[C@@H]4C)c2)CC1` [(128)], the half-maximal inhibitory concentration (IC50) was less than 10 nM against EGFR^L858R/T790M/C^797S, less than 10 nM on EGFR^L58R/T790M, 10 to 100 nM at EGFR^L858R and 100 to 1000 nM in the experiment on Ba/F3 Parental. For the same molecule, the GI50 (in experiment [1]; at Ba/F3 EGFR-Del19/T790M; on Ba/F3 EGFR-Del19/C797S) was 10 to 100 nM each time.

On to `C[C@H]1CCOc2c(cnn2C)-c2nccc(n2)Nc2cc3c(cn2)c(-c2ncc(CN4CCN(C)CC4)s2)nn31` [(107), (16S)-11,16-dimethyl-19-[5-[(4-methylpiperazin-1-yl)methyl]thiazol-2-yl]-13-oxa-2,6,10,11,17,18,22,25-octazapentacyclo[15.5.2.13,7.08,12.020,24]pentacosa-1(22),3,5,7(25),8(12),9,18,20,23-nonaene], for which the half-inhibitory concentration (IC50) at EGFR^L858R/T790M/C^797S was less than 10 nM; at EGFR^L58R/T790M, less than 10 nM; against EGFR^L858R, less than 10 nM; in the experiment with Ba/F3 Parental, 100 to 1000 nM. Also, the GI50 (in experiment [1]; at Ba/F3 EGFR-Del19/T790M; at Ba/F3 EGFR-Del19/C797S) was less than 10 nM throughout.

Consider `C[C@H]1CCOc2c(cnn2C)-c2nccc(n2)Nc2cc3c(cn2)c(-c2ccncc2)nn31` [(100)], for which the 50% inhibitory concentration (IC50) is less than 10 nM at EGFR^L858R/T790M/C^797S, less than 10 nM against EGFR^L58R/T790M, 10 to 100 nM against EGFR^L858R and 100 to 1000 nM in the experiment with Ba/F3 Parental. Moreover, the GI50 (in experiment [1]; at Ba/F3 EGFR-Del19/T790M; at Ba/F3 EGFR-Del19/C797S) was 10 to 100 nM each time.

For the molecule `COC(=O)C1CCCN1c1nn2c3cc(ncc13)Nc1ccnc(n1)-c1cnn(C)c1OCCC2` (stereo not drawn) [(61)], the IC50 against EGFR^L858R/T790M/C^797S is 10 to 100 nM; at EGFR^L58R/T790M, less than 10 nM; at EGFR^L858R it was 100 to 1000 nM; in the experiment on Ba/F3 Parental, not below 1000 nM. Also, the GI50 (in experiment [1]; at Ba/F3 EGFR-Del19/T790M; at Ba/F3 EGFR-Del19/C797S) was 100 to 1000 nM throughout.

On to `C[C@H]1CCOc2c(cnn2C)-c2nccc(n2)Nc2cc3c(cn2)c(-c2cc(CN4CCN(C)CC4)n(C)c2)nn31` [(144)], for which the IC50 against EGFR^L858R/T790M/C^797S was less than 10 nM; on EGFR^L58R/T790M, less than 10 nM; against EGFR^L858R it was less than 10 nM; with Ba/F3 Parental, 10 to 100 nM. The GI50 (in experiment [1]; on Ba/F3 EGFR-Del19/T790M; on Ba/F3 EGFR-Del19/C797S) was less than 10 nM each time.

Take `CCn1cc(C(=O)N2CCN(C)CC2)cc1-c1nn2c3cc(ncc13)Nc1ccnc(n1)-c1cnn(C)c1OCCC2C` (stereo not drawn) [(88)]: the IC50 at EGFR^L858R/T790M/C^797S was less than 10 nM; against EGFR^L58R/T790M, less than 10 nM; on EGFR^L858R, 10 to 100 nM; in the experiment with Ba/F3 Parental it was 100 to 1000 nM. Besides, the GI50 (in experiment [1]; at Ba/F3 EGFR-Del19/T790M; on Ba/F3 EGFR-Del19/C797S) was 100 to 1000 nM throughout.

With `CN(C)CC1CCN(c2nn3c4cc(ncc24)Nc2ccnc(n2)-c2cnn(C)c2OCCC3)C1` (stereo not drawn) [(13)], the IC50 against EGFR^L858R/T790M/C^797S was less than 10 nM; at EGFR^L58R/T790M, less than 10 nM; against EGFR^L858R, 10 to 100 nM; in the experiment with Ba/F3 Parental it was 100 to 1000 nM. The GI50 in experiment [1] was 10 to 100 nM; at Ba/F3 EGFR-Del19/T790M, 10 to 100 nM; on Ba/F3 EGFR-Del19/C797S it was 100 to 1000 nM.

In the case of `CC1CCOc2c(cnn2C)-c2nccc(n2)Nc2cc3c(cn2)c(-c2ccn(C)n2)nn31` (stereo not drawn) [(69)], the IC50 against EGFR^L858R/T790M/C^797S is less than 10 nM; against EGFR^L58R/T790M, less than 10 nM; on EGFR^L858R it was 10 to 100 nM; with Ba/F3 Parental, not below 1000 nM. The GI50 (in experiment [1]; on Ba/F3 EGFR-Del19/T790M; at Ba/F3 EGFR-Del19/C797S) was 10 to 100 nM in each case.
